Where a SMILES comes first, the peptide text is derived from it. [ ]: non-standard residue; d: D form. The star is where a group is joined. Phe(3-Br) = N[C@@H](Cc1cccc(Br)c1)C(=O)O; dNMeW = CN[C@H](Cc1c[nH]c2ccccc12)C(=O)O; Fmoc = O=C(OCC1c2ccccc2-c2ccccc21)*; Aoc(2) = CCCCCC[C@H](N)C(=O)O; Ahp(2) = CCCCC[C@H](N)C(=O)O
Columns and labels:
[1] = molecular target: T1, CCK-B receptors (CHO-CCK) (Homo sapiens, UniProt P32239); experiment: Calcium flux (Fluo-8) antagonist test on CHO-CCK model cells in presence of CCK8; format: cell-based
T1 construct: expressed in transfected cells; host or cells: CHO (CHO-CCK model cells)
T1 sequence (P32239 1-447): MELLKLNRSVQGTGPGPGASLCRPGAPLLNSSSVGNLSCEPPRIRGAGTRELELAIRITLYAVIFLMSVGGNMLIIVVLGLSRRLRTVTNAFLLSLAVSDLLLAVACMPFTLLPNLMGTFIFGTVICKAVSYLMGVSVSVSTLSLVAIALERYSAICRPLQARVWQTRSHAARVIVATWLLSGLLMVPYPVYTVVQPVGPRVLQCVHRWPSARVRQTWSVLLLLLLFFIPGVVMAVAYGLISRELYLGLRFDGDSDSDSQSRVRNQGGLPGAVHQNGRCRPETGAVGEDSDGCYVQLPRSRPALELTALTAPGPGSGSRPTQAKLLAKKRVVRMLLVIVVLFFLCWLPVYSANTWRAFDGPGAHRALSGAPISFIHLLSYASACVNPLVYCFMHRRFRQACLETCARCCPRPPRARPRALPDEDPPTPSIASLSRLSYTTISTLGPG
Protocol: The compound was formulated to a 10 mM mother liquor with DMSO, and then diluted into a series of 9 concentrations with a 3-fold gradient to form a 1000× stock solution. […] Prepare 1×Fluo-8 analysis buffer: mix 9 mL of HHBS, 1 mL of 10× Pluronic F127 Plus and 20 μL of Fluo-8 thoroughly for later use. • 3. Add Fluo-8 dye working solution to the cell plate, 100 μL/well. First incubate in a 37° C. incubator for 30 min, and then take it out and incubate at room temperature in the dark for 30 min. • 4. In the process of incubating cells, the compounds to be detected were prepared with HHBS. • 5. […] The agonism/antagonism EC50 of the compound can be obtained by plotting the fitting curve with the agonism/antagonism percentage as Y-axis and the concentration of the compound as X-axis.

[2] = molecular target: T1, CCK-B receptors (CHO-CCK); experiment: Calcium flux (Fluo-8) agonist test on CHO-CCK model cells; format: cell-based; settings: for EC50: CHO-CCK cells; for Agonistic Activity (%) at 10 μM: compound at 10 μM, percentage of signal of 20 nM CCK8 alone
Summary of the method: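 Agonist-mode Fluo-8 calcium flux read on CHO-CCK cells after dye loading 30 min at 37 °C plus 30 min at room temperature.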

[3] = Fluo-8 calcium flux, 100% control = 20 nM CCK8
[4] = compound together with 10 nM CCK8
[5] = compound alone, 100% = 20 nM CCK8
[6] = Fluo-8 calcium flux, bound in μM

For `CCCCC[C@H](NC(=O)[C@@H](Cc1c[nH]c2ccccc12)N(C)C(=O)OCC1c2ccccc2-c2ccccc21)C(=O)N[C@@H](CC(=O)O)C(=O)N[C@@H](Cc1cccc(Br)c1)C(N)=O` [HT-258, Fmoc-(N-Me-Trp)-Pa-Asp-Phe(3-Br)-NH2] (Fmoc-[dNMeW][Ahp(2)]D[Phe(3-Br)]-NH2), the EC50 ([1]; in presence of 10 nM CCK8) was 1040 nM and the EC50 [2, 3] was 0.0226 µM.

Molecule `CC(=O)N[C@H](Cc1c[nH]c2ccccc12)C(=O)N[C@@H](CCC(N)=O)C(=O)N[C@@H](CC(=O)O)C(=O)N[C@@H](Cc1cccc(Br)c1)C(N)=O` [HT-184, Ac-D-Trp-Glu-Asp-Phe(3-Br)-NH2] has an EC50 [1, 4] of 4410 nM and an EC50 [2, 5] of 4.32 µM.

For `CSCC[C@H](NC(=O)[C@H](Cc1c[nH]c2ccccc12)NC(C)=O)C(=O)N[C@@H](CC(=O)O)C(=O)N[C@@H](Cc1cccc(Br)c1)C(=O)N[C@@H](C)C(N)=O` [HT-201, Ac-D-Trp-Met-Asp-Phe(3-Br)-Ala-NH2], the EC50 ([1]; in presence of 10 nM CCK8) was 3600 nM and the EC50 [2, 3] was 4.29 µM.

With `CCCC[C@H](NC(=O)[C@H](Cc1c[nH]c2ccccc12)NC(C)=O)C(=O)N[C@@H](CCC(=O)O)C(=O)N[C@@H](Cc1c(C)[nH]c2ccccc12)C(N)=O` [HT-242, Ac-D-Trp-Nle-Glu-(2-Me-Trp)-NH2] the EC50 ([1]; in presence of 10 nM CCK8) was 1310 nM and the EC50 [2, 6] was > 10 µM.

For `CCCC[C@H](NC(=O)[C@@H](Cc1cn(C)c2ccccc12)NC(C)=O)C(=O)N[C@@H](CC(=O)O)C(=O)N[C@@H](Cc1c(C)[nH]c2ccccc12)C(N)=O` [HT-233, Ac-(1-Me-Trp)-Nle-Asp-(2-Me-Trp)-NH2], the EC50 ([1]; in presence of 10 nM CCK8) was 3650 nM and the EC50 [2, 6] was > 10 µM.

In the case of `CCCC[C@H](NC(=O)[C@@H](Cc1cn(C)c2ccccc12)NC(C)=O)C(=O)N[C@@H](CC(=O)O)C(=O)N[C@@H](Cc1cn(C)c2ccccc12)C(N)=O` [HT-232, Ac-(1-Me-Trp)-Nle-Asp-(1-Me-Trp)-NH2], the EC50 ([1]; in presence of 10 nM CCK8) is reported as 3280 nM and the EC50 [2, 3] is reported as 0.376 µM.

In the case of `CCCC[C@H](NC(=O)[C@@H](Cc1cn(C)c2ccccc12)NC(C)=O)C(=O)N[C@@H](CCC(=O)O)C(=O)N[C@@H](Cc1cn(C)c2ccccc12)C(N)=O` [HT-245, Ac-(1-Me-Trp)-Nle-Glu-(1-Me-Trp)-NH2], the EC50 ([1]; in presence of 10 nM CCK8) is reported as 1760 nM and the EC50 [2, 6] is reported as > 10 µM.

`CSCC[C@H](NC(=O)[C@H](N)Cc1c[nH]c2ccccc12)C(=O)N[C@@H](CC(=O)O)C(=O)N[C@@H](Cc1cccc(F)c1)C(N)=O` [HT-27, D-Trp-Met-Asp-Phe(3-F)-NH2] was tested, and the EC50 [1, 4] was 1340 nM, the EC50 [2, 5] was 0.155 µM and the “Agonistic Activity (%) at 10 μM” value [2] was 79.08%.

`CSCC[C@H](NC(=O)[C@@H](Cc1c[nH]c2ccccc12)NC(=O)CNC(=O)[C@H](Cc1ccc(O)cc1)NC(=O)[C@H](CC(N)=O)NC(=O)[C@H](CCCCN)NC(=O)[C@@H](NC(=O)[C@H](C)NC(=O)[C@H](CC(N)=O)NC(=O)[C@@H](NC(=O)[C@H](Cc1c[nH]cn1)NC(=O)CNC(=O)[C@H](CO)NC(=O)[C@H](CC(N)=O)NC(=O)[C@H](C)NC(=O)[C@H](Cc1ccc(O)cc1)NC(C)=O)C(C)C)C(C)C)C(=O)N[C@@H](CC(=O)O)C(=O)N[C@@H](Cc1cccc(Br)c1)C(N)=O` [HT-218] (Ac-YANSGHVNAVKNYG[dW]MD[Phe(3-Br)]-NH2) gave an EC50 ([1]; in presence of 10 nM CCK8) of 680 nM and an EC50 [2, 3] of 0.395 µM.

For `CSCC[C@H](NC(=O)[C@H](N)Cc1c[nH]c2ccccc12)C(=O)N[C@@H](CC(=O)O)C(=O)N[C@@H](Cc1ccc(C)cc1)C(N)=O` [HT-30, D-Trp-Met-Asp-Phe(4 Me)-NH2], the EC50 [1, 4] was 683 nM, the EC50 [2, 5] was 0.0932 µM and the “Agonistic Activity (%) at 10 μM” value [2] was 88.74%.

In the case of `COC(=O)C[C@H](NC(=O)[C@H](CCSC)NC(=O)[C@H](N)Cc1c[nH]c2ccccc12)C(=O)N[C@@H](Cc1cccc(Br)c1)C(N)=O` [HT-80, D-Trp-Met-Asp(Ome)-Phe(3-Br)-NH2], the EC50 [1, 4] is reported as 807 nM, the EC50 [2, 5] is reported as 0.572 µM and the “Agonistic Activity (%) at 10 μM” value [2] is reported as 57.83%.

With `CS(=O)(=O)CC[C@H](NC(=O)[C@H](N)Cc1c[nH]c2ccccc12)C(=O)N[C@@H](CC(=O)O)C(=O)N[C@@H](Cc1ccccc1F)C(N)=O` [HT-59, D-Trp-Met(O2)-Asp-Phe(2-F)-NH2] the EC50 [1, 4] was 9220 nM and the “Agonistic Activity (%) at 10 μM” value [2] was 39.73%.

With `CCCCCC[C@H](NC(=O)[C@H](Cc1c[nH]c2ccccc12)NC(C)=O)C(=O)N[C@@H](CC(=O)O)C(=O)N[C@@H](Cc1cccc(Br)c1)C(N)=O` [HT-259, Ac-D-Trp-Oa-Asp-Phe(3-Br)-NH2] (Ac-W[Aoc(2)]D[Phe(3-Br)]-NH2) the EC50 ([1]; in presence of 10 nM CCK8) was 59.2 nM and the EC50 [2, 3] was 0.00229 µM.

From US20240415918A1, “Polypeptide and its use as a CCK receptor agonist/antagonist” (Centre for Regenerative Medicine & Health, Hong Kong …, priority 2021, published 2024)
